Results published in PMC12391391, “The balance between B55α and Greatwall expression levels predicts sensitivity to Greatwall inhibition in cancer cells” (Nature Communications, 2025).
Read-outs that look alike come from different tables or passages of the source.

Tests used:
in vitro [1] = test: in vitro; design: intrinsic clearance in mouse microsomes; conditions: liver microsomes; mouse liver microsomes
Excerpt: (§1) We selected compound 1 as the lead exemplar of cluster 3 and leveraged it as a foundation for subsequent drug development (Fig. 1a). Structure-activity relationship studies and pharmacokinetic profiling produced several derivative molecules, of which compound 21 provided the best combination of outstanding inhibitory potential, low clearance in mouse microsomes and acceptable solubility (Fig. 1a–c and Supplementary Tables 1–4). […] This assessment was supported by structural modelling of the interaction between compound 21 and the active site of GWL (Fig. 1d). In further support of its GWL-targeting properties, compound 21 diminished the phosphorylation of the canonical GWL substrate ENSA(S67) in Xenopus laevis cytostatic factor (CSF) egg extract (Supplementary Fig. 2). Having satisfied the criteria of prospective GWL inhibitor, the racemic compound 21 was registered as UOS-00054604 and, for the remainder of the manuscript, is referred to as C-604.

[2] = molecular target: T1, Greatwall kinase (GWL, MASTL) (Homo sapiens, UniProt Q96GX5, K72M); test: biochemical; design: HTRF kinase assay with full-length GWL and ENSA, inhibition
T1 construct: full-length
T1 sequence (Q96GX5 1-879 K72M): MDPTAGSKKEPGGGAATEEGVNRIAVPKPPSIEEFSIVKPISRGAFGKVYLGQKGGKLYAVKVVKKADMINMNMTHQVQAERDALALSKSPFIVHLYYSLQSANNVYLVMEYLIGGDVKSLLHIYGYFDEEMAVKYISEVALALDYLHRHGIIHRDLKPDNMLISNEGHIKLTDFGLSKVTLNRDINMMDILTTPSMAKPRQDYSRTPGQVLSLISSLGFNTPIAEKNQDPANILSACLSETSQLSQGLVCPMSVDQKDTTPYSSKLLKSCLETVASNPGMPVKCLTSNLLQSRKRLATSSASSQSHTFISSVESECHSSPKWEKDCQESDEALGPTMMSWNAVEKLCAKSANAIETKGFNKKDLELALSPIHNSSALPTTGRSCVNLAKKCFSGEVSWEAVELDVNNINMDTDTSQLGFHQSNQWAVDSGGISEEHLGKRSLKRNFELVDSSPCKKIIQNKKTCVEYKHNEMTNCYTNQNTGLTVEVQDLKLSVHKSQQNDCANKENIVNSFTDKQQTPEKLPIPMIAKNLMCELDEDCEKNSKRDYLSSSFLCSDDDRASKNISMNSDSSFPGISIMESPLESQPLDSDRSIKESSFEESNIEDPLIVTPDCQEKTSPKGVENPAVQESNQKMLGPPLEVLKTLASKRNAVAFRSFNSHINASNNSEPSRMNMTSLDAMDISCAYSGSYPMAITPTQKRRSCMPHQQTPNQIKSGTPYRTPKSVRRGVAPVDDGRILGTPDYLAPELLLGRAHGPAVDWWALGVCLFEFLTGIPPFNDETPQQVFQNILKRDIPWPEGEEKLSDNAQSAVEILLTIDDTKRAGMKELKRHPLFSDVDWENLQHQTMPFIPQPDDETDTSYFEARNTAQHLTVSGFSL
Excerpt: To discover small molecules interfering with GWL activity, we screened a kinase-focused subset of the AstraZeneca compound collection in the full-length hyperactive GWL (K72M) homogeneous time-resolved fluorescence (HTRF) assay. The kinase screening collection comprised around 40,000 samples of interest, augmented by exemplars of kinase hinge-binding motifs, literature-reported kinase actives and screening catalogue purchases (mean MW ≈ 360, mean clogP ≈ 2.8), aiming to achieve as wide a coverage of the kinome as possible. Initially, we selected potential active molecules with a z-score ≤ −5 (equivalent to approximately 25% inhibition or better) and performed compound clustering, followed by near-neighbour testing and determination of relevant median inhibitory concentration (IC50) values. Subsequent re-clustering based on GWL inhibitory potency, Cdk1 selectivity, broad kinome selectivity and additional known factors influencing drug developability, such as molecular weight, lipophilicity and the number of hydrogen donors and acceptors, generated six prioritised compound clusters (Supplementary Fig. 1a, b). […] Despite the favourable kinase selectivity profile of cluster 5, we considered this series less attractive due to the limited number of compounds (n = 5) and suboptimal molecular properties for a hit, such as higher lipophilicity, lower binding efficiency (as indicated by ligand-lipophilic efficiency, LLE) and greater molecular weight (Supplementary Fig. 1a, b). […] We selected compound 1 as the lead exemplar of cluster 3 and leveraged it as a foundation for subsequent drug development (Fig. 1a). Structure-activity relationship studies and pharmacokinetic profiling produced several derivative molecules, of which compound 21 provided the best combination of outstanding inhibitory potential, low clearance in mouse microsomes and acceptable solubility (Fig. 1a–c and Supplementary Tables 1–4). […] This assessment was supported by structural modelling of the interaction between compound 21 and the active site of GWL (Fig. 1d). In further support of its GWL-targeting properties, compound 21 diminished the phosphorylation of the canonical GWL substrate ENSA(S67) in Xenopus laevis cytostatic factor (CSF) egg extract (Supplementary Fig. 2). Having satisfied the criteria of prospective GWL inhibitor, the racemic compound 21 was registered as UOS-00054604 and, for the remainder of the manuscript, is referred to as C-604.  Fig. 1 Development and characterisation of the GWL kinase inhibitor C-604. a Chemical structure of the lead exemplar compound 21 and the general synthetic route towards the preparation of pyrrolopyrazine GWL inhibitors. (a) for 4a, (i) NaH, SEM-Cl, DMF, 0 °C, 4 h; (ii) Arnold’s reagent, CHCl3, 60 °C, 20 h; (iii) NaClO2, KH2PO4, NH2SO3H, 1,4-dioxane/water, 0 °C to rt, 2 h, 35% (three steps); for 4b, (i) hexamine, TFA, MW, 80 °C, 20 min; (ii) NaH, SEM-Cl, DMF, 0 °C to rt, 16 h; (iii) NaClO2, KH2PO4, NH2SO3H, 1,4-dioxane/water, 0 °C to rt, 1.5 h, 14% (three steps); (b) 2 M methylamine in THF, T3P, pyridine, EtOAc, 60 °C, 2-4 h, 89-97%; (c) 2-(pyrrolidin-1-yl)ethanol, CuI, L-proline, K2CO3, DMSO, 100 °C, 16 h, 48%; (d) TFA, DCM, rt, 16 h then ethylenediamine, DCM, rt, 3-6 h, 29-92%; (e) 1-methylpiperazine, CuI, L-proline, K2CO3, DMSO, 100 °C, 16 h, 77%; (f) boronate ester, Pd(dppf)Cl2 · DCM, 1,4-dioxane/water, MW, 120 °C, 30 min, 43-81%; (g) boronate ester, Pd(dppf)Cl2 · DCM, 1,4-dioxane/water, MW, 120 °C, 30 min, 56%; (h) amine, K2CO3, DMF, 95 °C, 1 h, 32-67%. b Chemical structure of the lead compound 21 (C-604). c Dose-dependent effect of compound 21 (C-604) on the in vitro GWL activity measured by an HTRF assay utilising purified full-length GWL (K72M) and ENSA. Per cent (%) inhibition was determined from fluorescence intensity values normalised to the signal measured in the control enzyme-free reaction. […]

physchem = test: physchem; design: aqueous solubility at pH 7.0; conditions: pH 7.0; buffer pH 7.0; aqueous buffer pH 7.0
Excerpt: as §1

CDK1/cyclinB [3] = molecular target: T2, CDK1/cyclinB (Homo sapiens, UniProt P06493); test: biochemical; design: CDK1/cyclin B and off-target kinase inhibition assay
T2 sequence (P06493 whole entry): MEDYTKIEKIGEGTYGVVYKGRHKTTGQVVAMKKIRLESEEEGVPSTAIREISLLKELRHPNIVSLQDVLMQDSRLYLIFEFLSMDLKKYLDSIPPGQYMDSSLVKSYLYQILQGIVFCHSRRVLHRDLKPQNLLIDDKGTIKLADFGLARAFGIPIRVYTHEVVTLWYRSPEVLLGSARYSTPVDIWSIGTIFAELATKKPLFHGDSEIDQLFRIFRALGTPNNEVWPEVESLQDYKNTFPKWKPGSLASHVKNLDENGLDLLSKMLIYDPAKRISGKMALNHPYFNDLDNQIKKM
T2 sequence (P14635 whole entry partner): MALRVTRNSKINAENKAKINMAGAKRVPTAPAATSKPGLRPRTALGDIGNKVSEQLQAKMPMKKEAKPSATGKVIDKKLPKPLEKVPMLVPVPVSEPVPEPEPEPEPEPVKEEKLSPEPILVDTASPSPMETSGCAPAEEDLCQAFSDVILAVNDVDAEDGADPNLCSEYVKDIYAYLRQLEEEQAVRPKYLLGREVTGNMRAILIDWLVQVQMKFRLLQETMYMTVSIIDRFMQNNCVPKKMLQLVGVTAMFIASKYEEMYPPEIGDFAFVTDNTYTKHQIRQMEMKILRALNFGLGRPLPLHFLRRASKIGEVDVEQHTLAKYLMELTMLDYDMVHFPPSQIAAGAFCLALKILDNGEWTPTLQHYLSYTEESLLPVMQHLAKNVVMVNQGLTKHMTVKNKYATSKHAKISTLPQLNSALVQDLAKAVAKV

in vitro [4] = test: in vitro; design: intrinsic clearance in human microsomes; conditions: liver microsomes, human liver microsomes
Excerpt: as §1

CDK1/cyclinB [5] = molecular target: T2, CDK1/cyclinB; test: biochemical; design: CDK1/cyclin B and off-target kinase inhibition assay; conditions: read-out: off-target pIC50 (converted)
hERG = molecular target: T3, hERG (Homo sapiens, UniProt Q12809); test: cell-based; design: hERG channel inhibition
T3 construct: gene KCNH2
T3 sequence (Q12809 whole entry): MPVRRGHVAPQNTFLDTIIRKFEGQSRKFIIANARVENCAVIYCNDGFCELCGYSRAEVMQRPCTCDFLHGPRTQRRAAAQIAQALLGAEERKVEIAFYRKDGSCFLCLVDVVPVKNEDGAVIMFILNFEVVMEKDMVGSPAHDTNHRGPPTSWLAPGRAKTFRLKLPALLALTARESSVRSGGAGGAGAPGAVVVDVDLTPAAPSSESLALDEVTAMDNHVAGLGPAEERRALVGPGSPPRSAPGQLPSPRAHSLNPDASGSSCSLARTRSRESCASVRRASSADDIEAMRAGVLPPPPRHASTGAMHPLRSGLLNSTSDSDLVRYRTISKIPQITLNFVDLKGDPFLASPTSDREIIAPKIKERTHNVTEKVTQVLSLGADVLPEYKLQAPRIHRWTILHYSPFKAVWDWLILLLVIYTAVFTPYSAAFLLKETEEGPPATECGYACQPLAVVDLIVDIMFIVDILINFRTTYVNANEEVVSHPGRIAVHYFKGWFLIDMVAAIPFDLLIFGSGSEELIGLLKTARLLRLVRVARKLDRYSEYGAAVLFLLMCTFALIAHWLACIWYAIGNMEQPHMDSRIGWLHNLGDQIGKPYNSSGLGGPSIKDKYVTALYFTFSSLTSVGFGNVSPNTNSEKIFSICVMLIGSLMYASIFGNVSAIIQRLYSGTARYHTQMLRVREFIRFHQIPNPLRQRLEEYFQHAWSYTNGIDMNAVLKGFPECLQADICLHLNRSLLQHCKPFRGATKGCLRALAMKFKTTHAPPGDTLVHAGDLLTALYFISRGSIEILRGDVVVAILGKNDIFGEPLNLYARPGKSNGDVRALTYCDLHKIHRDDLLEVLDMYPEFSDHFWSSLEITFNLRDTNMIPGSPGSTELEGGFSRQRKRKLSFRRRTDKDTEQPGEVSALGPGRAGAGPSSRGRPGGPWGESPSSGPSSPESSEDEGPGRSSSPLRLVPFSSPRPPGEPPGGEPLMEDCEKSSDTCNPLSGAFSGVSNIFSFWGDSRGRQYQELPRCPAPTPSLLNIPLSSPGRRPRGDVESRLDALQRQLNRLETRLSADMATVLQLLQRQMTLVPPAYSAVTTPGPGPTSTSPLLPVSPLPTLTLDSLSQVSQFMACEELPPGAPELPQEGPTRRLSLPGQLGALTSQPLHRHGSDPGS
Excerpt: as §1

Syk = Syk (Homo sapiens, UniProt P43405); test: biochemical; design: CDK1/cyclin B and off-target kinase inhibition assay; conditions: read-out: off-target pIC50 (converted)
[6] = molecular target: T1, Greatwall kinase (GWL, MASTL); test: HTRF kinase assay with purified full-length GWL (K72M) and ENSA; type: biochemical

| microsomal CLint (in vitro [1]) | IC50 [2] | SMILES | also measured |
| --- | --- | --- | --- |
| 37 µL/min/mg | – | CNC(=O)c1c[nH]c2ncc(-c3ccc(OCCN4CCCC4)cc3)nc12 [compound 19, 19] | – |
| – | 4240 nM | CNC(=O)c1c[nH]c2ncc(N3CCN(C)CC3)nc12 [compound 7, 7] | – |
| 83 µL/min/mg | – | CNC(=O)c1c[nH]c2ncc(-c3ccc(N4CCN(C)CC4)cc3)nc12 [compound 14, 14] | solubility (physchem): 260 µM; IC50 (CDK1/cyclinB [3]): > 30000 nM; microsomal CLint (in vitro [4]; read-out: Cl (human)): 9 µL/min/mg |
| – | 206 nM | CNC(=O)c1c[nH]c2ncc(-c3cccc(CN(C)C)c3)nc12 [compound 11, 11] | – |
| 7 µL/min/mg | 80 nM | CNC(=O)c1c[nH]c2ncc(-c3ccc(OCCN4CCN(C(C)=O)CC4)cc3)nc12 [compound 17, 17] | – |
| – | 94 nM | CNC(=O)c1c[nH]c2ncc(-c3ccc(C(=O)NCCN(C)C)cc3)nc12 [compound 13, 13] | – |
| – | 62 nM | CNC(=O)c1c[nH]c2ncc(-c3cccc(C(=O)NCCN(C)C)c3)nc12 [compound 12, 12] | – |
| – | 507 nM | CNC(=O)c1c[nH]c2ncc(-c3cccnc3)nc12 [compound 10, 10] | – |
| 11 µL/min/mg | 191 nM | CNC(=O)c1c[nH]c2ncc(-c3ccc(OCCN4CCOCC4)cc3)nc12 [compound 15, 15] | – |
| – | – | CNC(=O)c1c[nH]c2ncc(-c3ccc(OCCN4CCC(OC)CC4)cc3)nc12 [compound 18, 18] | solubility (physchem): 504 µM |
| 18 µL/min/mg | 31 nM | CNC(=O)c1c[nH]c2ncc(-c3ccc(OCCN4CCN(C)CC4)cc3)nc12 [compound 16, 16] | – |
| – | 5880 nM | CNC(=O)c1c[nH]c2ncc(OCCN3CCCC3)nc12 [compound 6, 6] | – |
| 196 µL/min/mg | – | CNC(=O)c1c[nH]c2ncc(-c3cn(C)c4ccccc34)nc12 [compound 1, 1] | IC50 (CDK1/cyclinB [5]): 3160 nM; solubility (physchem): 15 µM; IC50 (hERG): > 30000 nM; IC50 (CDK1/cyclinB [3]): 1480 nM; microsomal CLint (in vitro [4]; read-out: Cl (human)): 147 µL/min/mg; microsomal CLint (in vitro [4]; read-out: hMic Clint): 45 µL/min/mg; IC50 ([2]; read-out: K72MGWL HTRF pIC50 (converted)): 100 nM; IC50 (Syk): 25.1 nM |
| – | – | CNC(=O)c1c[nH]c2ncc(-c3ccc(OCCN4CC[C@@H](c5ccccc5)C4)cc3)nc12 [21 (S), compound 21, S stereoisomer] | IC50 [6]: 10.9 ± 2 nM |
| – | 339 nM | CNC(=O)c1c[nH]c2ncc(-c3ccc(C#N)cc3)nc12 [compound 8, 8] | – |
| 12 µL/min/mg | – | CNC(=O)c1c[nH]c2ncc(-c3ccc(OCCN4CCCCC4)cc3)nc12 [compound 20, 20] | solubility (physchem): 585 µM |
| – | – | CNC(=O)c1c[nH]c2ncc(-c3ccc(OCCN4CC[C@H](c5ccccc5)C4)cc3)nc12 [21 (R), compound 21, R stereoisomer] | IC50 [6]: 13.3 ± 6.4 nM |
